Laboratory results from publication PMC10726920 (Cancer Medicine, 2023).
Like-named read-outs stand apart in the source and are kept apart here.

How the values were obtained:
[1] = Plasma pharmacokinetics, Cycle 1 (LC-MS, non-compartmental); assay type: in vivo, human; details: for half-life / Tmax / concentration at 7 days / AUC(0-t) / Cmax: human, plasma, 3 mg; for concentration at 7 days: after 7 days of dosing
Description: Blood samples were obtained on Days 1, 2, and 8 of Cycle 1. […] plasma concentrations were measured using liquid chromatography‐mass spectroscopy. Plasma concentration‐time data were analyzed by standard methods using WinNonlin. Pearson's correlation coefficient (r) was used to assess correlation of group variables. Statistical significance was defined as p < 0.05. Additional details are contained in the Supplementary Method: Data S1.
Blood samples (6 ml, sodium heparin) were obtained during the first cycle of treatment before drug administration on Days 1, 2 and 8; and 0.5, 1, 2, 3, 4, and 8 hours after the oral dose was administered on Day 1 and Day 8. After collection, tubes were immediately cooled in an ice water bath and plasma was isolated by centrifugation (10 minutes; 1,100 - 1,300 x g; 4°C) in a refrigerated centrifuge. Plasma samples were frozen immediately and stored at approximately -70°C or lower until analysis.
Plasma concentration-time data were analyzed by standard non-compartmental methods using WinNonlin (Pharsight, Mountain View, CA). Standard descriptive statistics were used to summarize plasma sapanisertib PK parameters. […] Oral steady-state clearance (ClSS/F) was calculated using the equation, ClSS = Dose/AUCτ.

[2] = test system: phospho-4EBP1 (direct mTORC1 substrate) in Jurkat ALL cell line; assay: Immunoblotting of Jurkat cells treated 24 h with sapanisertib; assay type: cell-based, human
Source text: (§1) FIGURE 2 Effect of MLN0128 concentrations on mTOR‐associated phosphorylation in vitro, ex vivo, and in the context of the present trial. […] (C) Samples harvested from the indicated patients prior to treatment (lanes 1, 4, 6, 8, and 10), on Day 8 prior to therapy (lanes 2, 5, 7, 9, and 11), or at the time of removal from study after 6 weeks (lane 3) were subjected to SDS‐PAGE and blotting for the indicated antigens. Jurkat cells (lane 12) were included in the blot because they were known to be positive for all analytes.[29] The housekeeping protein nucleolin (NCL) served as a loading control.
After samples were dialyzed sequentially into 4 M urea and 0.1% (w/v) SDS, lyophilized and reconstituted in SDS-sample buffer consisting of 4 M urea, 2% (w/v) SDS, […] (pH 6.8 at 4 °C), 10 mM EDTA, and 1% (w/v/) 2-mercaptoethanol, aliquots containing […] of total cellular protein were subjected to SDS-PAGE on gels containing 5-20% polyacrylamide gradients, transferred to nitrocellulose, and probed with antibodies as previously described ^34, 35. […]

[3] = test system: phospho-4EBP1 (direct mTORC1 substrate) in ALL sample; assay: Immunoblotting of pretreatment ALL specimen treated ex vivo 48 h with sapanisertib; assay type: cell-based, human; details: 5 μM Q‐VD‐OPh
Source text: as §1
Cells were isolated from bone marrow or blood samples using Histopaque-1077 (Millipore-Sigma, St. Louis, MO) step gradients. […] Cells for ex vivo drug exposure were resuspended at a concentration of 1 x 10^6 cells/ml in RPMI 1640 medium containing 10% (v/v) heat-inactivated fetal bovine serum, 50 U/ml penicillin G, 50 µg/ml streptomycin, and 1 mM glutamine. […]

[4] = test system: patients with advanced multiple myeloma; set-up: method as in PMID 26800393; details: orally daily; cited from earlier work
[5] = test system: BCR‐ABL‐positive ALL; set-up: method as in PMID 23090679; details: cited from earlier work
[6] = test system: human ALL cell line xenografts; set-up: method as in PMID 26917778; details: cited from earlier work

CC(C)n1nc(-c2ccc3oc(N)nc3c2)c2c(N)ncnc21 [sapanisertib]
C max, Mean ± SD ([1]; Cycle 1 Day 1, 3 mg daily oral): 26.1 ± 8.0 ng/mL | CL, Mean ± SD ([1]; Cycle 1 Day 1, 3 mg daily oral): 22.0 ± 14.2 L/h | CL, Median (range) ([1]; Cycle 1 Day 1, 3 mg daily oral): 22.0 (5.8–49.2) L/hr | CL, Mean ± SD ([1]; Cycle 1 Day 8, 3 mg daily oral): 23.3 ± 23.8 L/h | CL, Median (range) ([1]; Cycle 1 Day 8, 3 mg daily oral): 16.4 (3.2–82.6) L/hr | peak plasma concentration ([1]; Day 1): 84 nM | time to peak concentration after drug administration ([1]; Day 1): 2 h | time to peak concentration after drug administration ([1]; Day 8): 1.2 h | time of peak concentration (mean) ([1]; Day 8 dose, discussion): 1.5 h | mean accumulation ratio ([1]; Day 8 versus Day 1 AUCall): 1.4 | half‐life (terminal serum) ([1]; discussion): 8 h | half-life ([1]; oral, Day 1, read-out: mean elimination half‐life (converted)): 8.2 ± 4.9 h | Tmax ([1]; oral, Day 1, read-out: time to peak concentration, range): 0.5 to 4.1 h | half-life ([1]; oral, Day 8, read-out: mean half‐life (converted)): 24.3 ± 42.5 h | Tmax ([1]; oral, Day 8, read-out: time to peak concentration, range): 0.5 to 2.9 h | concentration at 7 days ([1]; oral, read-out: median trough concentration): 1.9 ng/mL | concentration at 7 days ([1]; oral, read-out: trough concentration, range): 0 to 41.6 ng/mL | AUC(0-t) ([1]; po, Cycle 1 Day 1, 3 mg daily oral, read-out: AUC0–24 h, Mean ± SD): 213 ± 143 ng·h/mL | AUC(0-t) ([1]; po, Cycle 1 Day 1, 3 mg daily oral, read-out: AUC0–24 h, Median (range)): 213 ng·h/mL | Cmax ([1]; po, Cycle 1 Day 1, 3 mg daily oral, read-out: C max, Mean ± SD): 26 ng/mL | Cmax ([1]; po, Cycle 1 Day 1, 3 mg daily oral, read-out: C max, Median (range)): 26.5 ng/mL | half-life ([1]; po, Cycle 1 Day 1, 3 mg daily oral, read-out: Half‐life, Mean ± SD (converted)): 8.2 ± 4.9 h | half-life ([1]; po, Cycle 1 Day 1, 3 mg daily oral, read-out: Half‐life, Median (range) (converted)): 7.1 h | Tmax ([1]; po, Cycle 1 Day 1, 3 mg daily oral, read-out: T max, Mean ± SD): 1.7 ± 1.1 h | Tmax ([1]; po, Cycle 1 Day 1, 3 mg daily oral, read-out: T max, Median (range)): 2 h | AUC(0-t) ([1]; po, Cycle 1 Day 8, 3 mg daily oral, read-out: AUC0–24 h, Mean ± SD): 361 ± 337 ng·h/mL | AUC(0-t) ([1]; po, Cycle 1 Day 8, 3 mg daily oral, read-out: AUC0–24 h, Median (range)): 182 ng·h/mL | Cmax ([1]; po, Cycle 1 Day 8, 3 mg daily oral, read-out: C max, Mean ± SD): 34.4 ± 20.9 ng/mL | Cmax ([1]; po, Cycle 1 Day 8, 3 mg daily oral, read-out: C max, Median (range)): 29.4 ng/mL | half-life ([1]; po, Cycle 1 Day 8, 3 mg daily oral, read-out: Half‐life, Mean ± SD (converted)): 24.3 ± 42.5 h | half-life ([1]; po, Cycle 1 Day 8, 3 mg daily oral, read-out: Half‐life, Median (range) (converted)): 11.3 h | Tmax ([1]; po, Cycle 1 Day 8, 3 mg daily oral, read-out: T max, Mean ± SD): 1.5 ± 0.7 h | Tmax ([1]; po, Cycle 1 Day 8, 3 mg daily oral, read-out: T max, Median (range)): 1.2 h | concentration diminishing phosphorylation of 4EBP1 without change in total 4EBP1 [2]: 62.5 to 200 nM | concentration diminishing phosphorylation of 4EBP1 without change in total 4EBP1 [3]: 62.5 to 200 nM | MTD [4]: 6 mg | growth of syngeneic mouse model of BCR‐ABL‐positive ALL [5]: inhibited growth | growth of human ALL cell line xenografts [6]: inhibited growth
